Laboratory results: patent publication US20250375475A1 (priority 2024, published 2025)

Tests used:
astroglia = details: FIG. 2
circulating leukocytes = assay: Absolute number of circulating leukocytes (FIG. 3); details: rodents
microglia/macrophages = details: FIG. 7; LPS-lesioned rats
microglia = assay: Reactive oxygen species in microglia (FIG. 6)
CD206 = CD206 expression (FIG. 5)
[1] = natural zinc, blood to brain across the BBB; cited from earlier work

^64Zn L-Aspartate
inflammation as evidenced by astroglia (astroglia): lowered the inflammation significantly | absolute number of circulating leukocytes (circulating leukocytes): normalization | oxidative stress as indicated by metabolic characteristics of microglia/macrophages (microglia/macrophages): significantly reduced oxidative stress | GFAP in blood (GFAP; FIG. 1A, blood): significant reduction | GFAP in the brain and periphery (GFAP; FIG. 1B, brain and periphery): significant reduction | reactive oxygen species in microglia (microglia): reduction | CD206 expression (CD206): reduction

[Zn] [zinc]
zinc in the blood taken up by brain tissues [1]: 2-3%
